Experiments:
Beta-secretase 1 [1] = biological target: T1, Beta-secretase 1 (Homo sapiens, UniProt P56817); test: AlphaScreen Assay: BACE1 activity can be assessed in an AlphaScreen® assay. Compounds to be assessed (e.g. compounds as described in the above examples) are serially diluted 1:4 in DMSO, then plated by diluting 10 μL of compound with 40 μl of assay buffer (1×PBS, 0.01% Tween-20, pH 7.0, 0.05% BSA). The diluted compound is transferred (4 μL per well) to a […] well assay plate and 4 μL of BACE1 enzyme (20 mg/mL) is added and incubated for 15 minutes. This assay uses a probe that is a BACE1 binding sight ligand linked to biotin, which can be displaced by test compound dependent on compound binding affinity. This of biotinylated probe (4 μL) is added and incubated for 1 hour, followed with 4 μL of donor and acceptor bead mixture and incubated for 2 hours. The fluorescent signal is read on a plate reader and the value as a function of compound concentration is used to determine the IC50.
T1 sequence (P56817 whole entry): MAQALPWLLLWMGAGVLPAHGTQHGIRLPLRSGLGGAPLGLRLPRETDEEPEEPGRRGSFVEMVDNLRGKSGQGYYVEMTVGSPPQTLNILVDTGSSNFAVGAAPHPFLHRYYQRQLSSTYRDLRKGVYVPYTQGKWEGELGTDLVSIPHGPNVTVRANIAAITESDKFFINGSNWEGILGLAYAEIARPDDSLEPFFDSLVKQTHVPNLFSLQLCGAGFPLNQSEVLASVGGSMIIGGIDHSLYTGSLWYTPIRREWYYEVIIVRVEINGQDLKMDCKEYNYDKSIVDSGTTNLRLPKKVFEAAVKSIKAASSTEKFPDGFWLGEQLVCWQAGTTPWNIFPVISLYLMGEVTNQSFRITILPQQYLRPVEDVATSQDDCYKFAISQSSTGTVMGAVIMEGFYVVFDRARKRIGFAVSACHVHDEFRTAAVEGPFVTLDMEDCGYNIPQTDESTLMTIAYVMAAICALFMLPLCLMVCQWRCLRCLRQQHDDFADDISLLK

Beta-secretase 1 [2] = biological target: T1, Beta-secretase 1; test: FP Assay: Compounds are also assessed for BACE1 and Cathepsin D activity using an FP Assay. Compounds to be assessed (e.g. compounds as described in the above examples) are serially diluted 1:3 with DMSO and each concentration point is transferred to a 96 well plate, 6 uL per well, followed by addition of 194 uL of assay buffer (100 mM sodium acetate, pH 4.5 with 0.001% Tween-20). A 10 uL compound sample from this plate is transferred to a well of a 384 well plate and combined with 10 uL per well of BACE1 enzyme (0.3 nM in assay buffer) or Cathepsin D enzyme (1.8 nM in assay buffer) and the plate is incubated at room temperature for 30 minutes.

C[C@@]1(c2cc(/C=C/c3ccc(F)cc3)ccc2F)CC2(CCC(F)(F)CC2)OC(N)=N1
IC50 (Beta-secretase 1 [1]): 1960 nM
IC50 (Beta-secretase 1 [2]): 13.1 µM

From ChEMBL document CHEMBL5725252, “Spirocyclic dihydro-thiazine and dihydro-oxazine BACE inhibitors, and compositions and uses thereof” (2016)
